Results: BindingDB's records for doi:10.1021/jm00050a008 (University of North Carolina, 1995)

Experiment: The compound was tested for affinity towards sigma-3 receptor

## CCCN(C)C1Cc2ccccc2C(c2ccccc2)C1 (stereo not given)
  IC50: 4.5 nM

## CCCN(CCC)C1Cc2ccccc2C(c2ccccc2)C1 (stereo not given)
  IC50: 13 nM

## CCN(CC)C1Cc2ccccc2C(c2ccccc2)C1 (trans isomer)
  IC50: 2.2 nM

## CCCNC1Cc2ccccc2C(c2ccccc2)C1 (stereo not given)
  IC50: 59 nM

## CNC1Cc2ccccc2C(c2ccccc2)C1 (stereo not given)
  IC50: 79 nM
